# Experimental data as given in EPA's ToxValDB 9.5.
# Where a name gives a salt, the structure may show the parent alone.
# Tested on: Rattus norvegicus
# [1] = subchronic, oral, gavage, M, Sprague-Dawley, Clinical Observation: Salivation PtosisReddish urine + Functional Observational Battery: Salivation Coordination of movement, abnormal …
# [2] = short-term, duration: 28 days, oral, gavage, F, Sprague-Dawley, Clinical Observation: Staggering gait + Body Weight Changes: decrease, Gain decrease + Urinalysis: pH decrease, Protein decrease, Volume …
# [3] = short-term, duration: 28 days, oral, gavage, M, Sprague-Dawley, Clinical Observation: Staggering gait + Body Weight Changes: decrease, Gain decrease + Urinalysis: pH decrease, Protein decrease, Volume …
# [4] = short-term; duration: 28 days; oral; gavage; M; Sprague-Dawley; Deaths/5) + Body Weight Changes: decrease + Food Consumption: decrease + Urinalysis: Urine volume decrease, Uosm increase + Hematology: MCH …
# [5] = subchronic, oral, gavage, M, Sprague-Dawley, Absolute Organ Weight: Liver increase + Relative Organ Weight: Liver increase + Necropsy: Stomach-Thickening of limiting ledge + …
# [6] = short-term, duration: 28 days, oral, gavage, F, Sprague-Dawley, Clinical Observation: Salivation80 + Necropsy: Stomach-Thickening, limiting ridge Forestomach-Thickening, mucosa, focal + Histopathology: …
# [7] = short-term, duration: 28 days, oral, gavage, M, Sprague-Dawley, Clinical Observation: Salivation80 + Necropsy: Stomach-Thickening, limiting ridge Forestomach-Thickening, mucosa, focal + Histopathology: …
# [8] = subchronic, oral, gavage, Sprague-Dawley
smiles,measurement,setting,value
CCCCCCC[CH2][Sn]([S]CC(=O)OCCCCCC(C)C)([S]CC(=O)OCCCCCC(C)C)[S]CC(=O)OCCCCCC(C)C,NOAEL,"subchronic, duration: 13 weeks, oral, diet, M, CIVO, Wistar-derived, Relative Organ Weight: Kidney increase, Liver decrease + Histopathology: Kidney-Increased granularity, tubular epithelial cells",28.8 mg/kg-day
same,NOAEL,"subchronic, duration: 13 weeks, oral, drinking water, M/F, CIVO, Wistar-derived, Urinalysis: Epithelial cell increase, Crystals increase + Hematology: HGB decrease + Blood Chemistry: BUN increase + Relative Organ Weight: …",< 45.6 mg/kg-day
C[C@@H](O)[C@H]1C(=O)N2C(C(=O)O)=C([C@H]3CCCO3)S[C@H]12 [Fropenem],NOAEL,"chronic, duration: 182 days, oral, gavage, M/F, CD, Clinical Observation: Loose stool Soiled perineal region + Body Weight Changes: decrease + Food Consumption: decrease + Water Consumption: …",100 mg/kg-day
"COc1cc(NC(=O)CC(C)=O)c(OC)cc1Cl [4'-Chloro-2',5'-dimethoxyacetoacetanilide]",NOAEL,[1],40 mg/kg-day
same,NOEL,[1],8 mg/kg-day
Nc1nn[nH]n1 [Tetrazol-5-ylamine],NOEL,"subchronic, oral, gavage, M, Sprague-Dawley, Blood Chemistry: BUN increase",200 mg/kg-day
Cc1ccc(S(=O)(=O)Cl)cc1 [p-Toluenesulfonyl chloride],NOAEL,"subchronic, duration: 51 days, oral, gavage, M, Sprague-Dawley, Clinical Observation: Soft stool Staining around anorectal region Staining around mouth Staining around nose(blood like) Loss of hair around…",< 150 mg/kg-day
CCC1(c2ccccc2)C(=O)NCNC1=O [Primidone],NOEL,"chronic, duration: 14 weeks, oral, diet, M/F, Fischer 344, Body Weight Changes: decrease + Hematology: Plt increase, Hgb decrease, WBC increase, Lympho increase + Blood Chemistry: Blood cemistry', '…",< 23.4 mg/kg-day
COC1COC(OC2COC(OC3COC(OC4COC(OC)C(OS(=O)(=O)[O-])C4OS(=O)(=O)[O-])C(OC4OC(C(=O)[O-])C(OC)C(OS(=O)(=O)[O-])C4OS(=O)(=O)[O-])C3OS(=O)(=O)[O-])C(OS(=O)(=O)[O-])C2OS(=O)(=O)[O-])C(OS(=O)(=O)[O-])C1OS(=O)(=O)[O-].[Na+].[Na+].[Na+].[Na+].[Na+].[Na+].[Na+].[Na+].[Na+].[Na+] (centres undefined) [Elmiron],NOEL,"repeat dose other, oral, gavage, M/F, Fischer 344, Hematology: Hct decrease, Hgb decrease, RBC decrease, Plt increase, WBC increase + Absolute Organ Weight: Liver increase, Spleen increase, …",< 63 mg/kg-day
CC(C)=CCO [3-Methyl-2-buten-1-ol],NOAEL,"subchronic, duration: 90 days, oral, drinking water, M/F, Wistar, Body Weight Changes: Mean body weight decrease, Weight gain decrease + Food Consumption: decrease + Water Consumption: decrease + Urinalysis…",152 mg/kg-day
CO[Si](CCCOCC1CO1)(OC)OC (centres undefined) [Trimethoxy[3-(oxiran-2-ylmethoxy)propyl]silane],NOAEL,"short-term, duration: 28 days, oral, gavage, Sprague-Dawley, Deaths: None (there were dead animals due to intubation error)",> 1000 mg/kg-day
O=[N+]([O-])c1cc([As](=O)(O)O)ccc1O [4-Hydroxy-3-nitrophenylarsonic acid],NOEL,"subchronic, duration: 13 weeks, oral, diet, M/F, Fischer 344, Deaths + Clinical Observation: Ruffled fur Hyperexcitability Ataxia Trembling Slight inactivity + Body Weight Changes: decrease + Relative …",< 4.8 mg/kg-day
CC(=O)CC(=O)Nc1ccc(-c2ccc(NC(=O)CC(C)=O)c(C)c2)cc1C,NOEL,"short-term, duration: 28 days, oral, gavage, M/F, Crl:CD(SD), Body Weight Changes: decrease + Food Consumption: decrease + Water Consumption: decrease + Urinalysis: Volume decrease + Blood Chemistry: …",8 mg/kg-day
S=C(SSSSC(=S)N1CCCCC1)N1CCCCC1 [Bis(piperidinothiocarbonyl) tetrasulphide],NOEL,"short-term, duration: 28 days, oral, gavage, F, Sprague-Dawley, Histopathology: Kidney-Hyaline droplet, proximal tubular epithelium Kidney-Eosinophilic body, proximal tubular epithelium",1000 mg/kg-day
same,NOEL,"short-term, duration: 28 days, oral, gavage, M, Sprague-Dawley, Histopathology: Kidney-Hyaline droplet, proximal tubular epithelium Kidney-Eosinophilic body, proximal tubular epithelium",100 mg/kg-day
same,NOEL,"subchronic, oral, gavage, M, Sprague-Dawley, Clinical Observation: Light brown stool + Body Weight Changes: decrease, R",1000 mg/kg-day
"COc1ccc(OC)c(Cl)c1 [2-Chloro-1,4-dimethoxybenzene]",LOEL,[2],200 mg/kg-day
same,NOEL,[2],40 mg/kg-day
same,LOEL,[3],200 mg/kg-day
same,NOEL,[3],40 mg/kg-day
same,NOEL,"subchronic, oral, gavage, M, Sprague-Dawley, Hematology: RBC decrease, MCV increase, MCH increase + Blood Chemistry: T-Cho increase, PL increase, Ca increase + Absolute Organ Weight: …",30 mg/kg-day
O=C(O)C1CCC(c2ccc(Cl)cc2)CC1 (centres undefined),NOEL,"short-term, duration: 28 days, oral, gavage, M/F, Deaths + Clinical Observation: Abnormal gait Lethargy Piloerection Ptosis + Blood Chemistry: GPT increase, ALP increase, TP increase, ALB …",< 12 mg/kg-day
c1ccc2c(c1)[nH]c1ccccc12 [Carbazole],NOEL,"subchronic, oral, gavage, M, Sprague-Dawley, Body Weight Changes: decrease + Blood Chemistry: T-Cho increase, PL increase, Glu decrease + Absolute Organ Weight: Liver increase, Kidney …",25 mg/kg-day
O=C1CCCO1 [gamma-Butyrolactone],NOEL,"subchronic, duration: 13 weeks, oral, gavage, M/F, Fischer 344, Clinical Observation: Slight inactivity Recumbent + Body Weight Changes: decrease + Absolute Organ Weight: Thymus decrease + Relative Organ …",112 mg/kg-day
"C1CN2CCN1CC2 [1,4-Diazabicyclo[2.2.2]octane]",NOAEL,"short-term, duration: 29 days, oral, gavage, M, Sprague-Dawley, Body Weight Changes: Weight gain decrease + Food Consumption: decrease + Histopathology: Kidney: Inflammation, chronic Kidney: Proliferation",100 mg/kg-day
C[C@](N)(Cc1ccc(O)c(O)c1)C(=O)O.C[C@](N)(Cc1ccc(O)c(O)c1)C(=O)O.O.O.O [Methyldopa sesquihydrate],NOEL,"subchronic, duration: 13 weeks, oral, diet, M/F, Fischer 344, Deaths + Body Weight Changes: decrease + Food Consumption: decrease + Absolute Organ Weight: Liver decrease + Relative Organ Weight: Liver …",< 298 mg/kg-day
"O=S(=O)(c1ccc(Cl)cc1)c1ccc(Cl)cc1 [4,4'-Dichlorodiphenyl sulfone]",NOEL,"chronic, duration: 14 weeks, oral, diet, M/F, Fischer 344, Body Weight Changes: decrease + Food Consumption: decrease + Hematology: Hgb decrease, Plt increase + Blood Chemistry: TP increase, BUN …",< 2.34 mg/kg-day
same,NOAEL,[4],< 50 mg/kg-day
same,NOEL,[4],< 50 mg/kg-day
CCOC(=O)/C=C\C(=O)OCC [Diethyl maleate],NOAEL,[5],20 mg/kg-day
same,NOEL,[5],20 mg/kg-day
"C=CC(=O)N(C)C [N,N-Dimethylacrylamide]",NOEL,"short-term, duration: 28 days, oral, gavage, M/F, Sprague-Dawley, Functional Observational Battery: Urination increase, Rearing decrease, Unkempt fur Motor activity decrease + Body Weight Changes: decrease…",20 mg/kg-day
CC(C)(C)c1cc(N=C(NO)c2ccc([N+](=O)[O-])cc2)n[nH]1,NOEL,"short-term, duration: 28 days, oral, gavage, M/F, Body Weight Changes: Weight gain decrease + Hematology: RET increase, RBC decrease, HGB decrease, WBC increase, MCV increase, MCH increase, …",< 4 mg/kg-day
COC(=O)c1cccc(C(=O)OC)c1 [Dimethyl isophthalate],NOAEL,"subchronic, oral, gavage, M, Sprague-Dawley, Clinical Observation: Salivation + Urinalysis: Volume increase, Na increase",250 mg/kg-day
"NCCCC1OCC2(CO1)COC(CCCN)OC2 (centres undefined) [2,4,8,10-Tetraoxaspiro[5.5]undecane-3,9-dipropanamine]",NOEL,"subchronic, oral, gavage, M, Sprague-Dawley, Clinical Observation: Locomotor activity decrease, Respiratory irregularity Prone position Salivation + Body Weight Changes: decrease1000…",< 40 mg/kg-day
C=C[Si](C)(C)O[Si](C)(C)C=C [Divinyltetramethyldisiloxane],NOAEL,"short-term, duration: 28 days, oral, gavage, M, CD(SD), Clinical Observation: Clear material around the mouth Red material around the mouth + Body Weight Changes: Mean body weight decrease, Weight…",< 50 mg/kg-day
CC(C)(C)C(O)(CCc1ccc(Cl)cc1)Cn1cncn1 (centres undefined) [Tebuconazole],NOEL,"short-term, duration: 28 days, oral, gavage, M/F, Clinical Observation: Coma Polyuria + Body Weight Changes: Body weight gain decrease + Hematology: WBC increase, Seg% increase + Blood …",30 mg/kg-day
Cc1ccc(C)c(OCCCC(C)(C)C(=O)O)c1 [Gemfibrozil],NOAEL,"chronic, duration: 91 days, oral, diet, F, CD, Body Weight Changes: Body weight gain decrease + Hematology: RBC decrease, HCT decrease, HGB decrease, Plt increase, RET increase + Blood …",30 mg/kg-day
same,NOAEL,"chronic, duration: 91 days, oral, diet, M, CD, Body Weight Changes: Body weight gain decrease + Hematology: RBC decrease, HCT decrease, HGB decrease, Plt increase, RET increase + Blood …",< 30 mg/kg-day
CC(=O)CC/C=C(\C)CC/C=C(\C)CC/C=C(\C)CCC=C(C)C [Teprenone],NOEL,"subchronic, oral, gavage, M/F, Sprague-Dawley, Clinical Observation: Oily fur Unkempt fur Loss of fur Diarrhea + Body Weight Changes: decrease + Urinalysis: Cl increase, Ketone + …",62.5 mg/kg-day
C=Cc1ccncc1 [4-Vinylpyridine],LOEL,[6],80 mg/kg-day
same,NOEL,[6],40 mg/kg-day
same,LOEL,[7],40 mg/kg-day
same,NOEL,[7],20 mg/kg-day
[O-][n+]1ccccc1[S-].[O-][n+]1ccccc1[S-].[Zn+2] [Zinc pyrithione],NOEL,[8],1 mg/kg-day
O=C1C=CC(=O)N1c1ccc(Cc2ccc(N3C(=O)C=CC3=O)cc2)cc1 [Bismaleimide],NOEL,[8],1000 mg/kg-day
"Cc1ccc(Cl)c(Cl)c1 [3,4-Dichlorotoluene]",NOEL,"subchronic, oral, gavage, M, Sprague-Dawley, Deaths + Clinical Observation: Death-1/6 on treatment day 15R + Body Weight Changes: decrease(tendency)Body weight gain decrease(tendency…",100 mg/kg-day
CC(=O)OC1CC(C)OC(C)O1 (centres undefined) [Dimethoxane],NOEL,"subchronic, duration: 13 weeks, oral, gavage, M/F, Fischer 344, Body Weight Changes: decrease + Relative Organ Weight: Kidney increase, Brain increase, Lung increase + Histopathology: Stomach/forestomach…",31 mg/kg-day
O=C1Oc2cc3c(cc2=C1c1ccccc1)OC(=O)C=3c1ccc(OCC2CCCO2)cc1 (centres undefined),NOEL,"short-term, duration: 28 days, oral, gavage",1000 mg/kg-day
CC(O)CNCC(C)O (centres undefined) [Diisopropanolamine],NOAEL,"subchronic, duration: 90 days, oral, drinking water, F, Fischer 344, Water Consumption: decrease + Urinalysis: Volume decrease, Specific gravity increase + Absolute Organ Weight: Kidney increase500 + Relative…",500 mg/kg-day
same,NOAEL,"subchronic, duration: 90 days, oral, drinking water, M/F, Fischer 344, Water Consumption: decrease + Urinalysis: SG increase, Volume decrease + Absolute Organ Weight: Kidney increase + Relative Organ Weight: …",100 mg/kg-day
same,NOAEL,"subchronic, duration: 90 days, oral, drinking water, M, Fischer 344, Water Consumption: decrease + Urinalysis: Volume decrease, Specific gravity increase + Absolute Organ Weight: Kidney increase500 + Relative…",100 mg/kg-day
"CCCCCCC[CH2][Sn]([CH2]CCCCCCC)([S]CC(=O)OCCCCCC(C)C)[S]CC(=O)OCCCCCC(C)C [Dioctyltin-S,S'-bis(isooctylmercaptoacetate)]",NOAEL,"subchronic, duration: 13 weeks, oral, diet, Sprague-Dawley",14.4 mg/kg-day
COCCOCCOCCO [2-[2-(2-Methoxyethoxy)ethoxy]ethanol],NOAEL,"chronic, duration: 91 days, oral, drinking water, M/F, Sprague-Dawley, Deaths + Body Weight Changes: Body weight gain decrease + Food Consumption: decrease + Water Consumption: decrease + Absolute Organ Weight: …",400 mg/kg-day
